Test results reported in PMC11478334, “Quaternized Curcumin Derivative—Synthesis, Physicochemical Characteristics, and Photocytotoxicity, Including Antibacterial Activity after Irradiation with Blue Light” (Molecules, 2024).
Where “and” joins values, the source holds several entries; their conditions need not be identical. Equal values may be shown once. Read-outs that look alike come from different tables or passages of the source.

Assays:
[1] = test system: Escherichia coli ATCC 25922; assay: In vitro photodynamic inactivation of planktonic cells, 470 nm LED; assay type: cell-based
Description: (§1) In the first experiment, the main goal was to determine whether the tested compounds were antimicrobially active with or without light. Two compounds (2 and 3) were tested in the visible range, and a 470 nm LED lamp was applied (Figure 11). Due to poor solubility and low absorption, curcumin was not included in the tests. A screening study was carried out on three strains: Gram-positive bacteria—Staphylococcus aureus NCTC 4163, Gram-negative bacteria—Escherichia coli ATCC 25922, and the yeast Candida albicans ATCC 10231. In the study, the irradiation lasted 30 min, and the lamp was placed 10 mm above the microtiter plate containing the bacterial suspensions and tested compounds at concentrations of 10 μM. The preincubation time (PIT) lasted 20 min, and the LED lamp emitted visible light (λmax 470 nm) with an irradiance of 16.67 mW/cm^2, which corresponds to a light dose (fluence) of 30.01 J/cm^2 after 30 min of exposure. The light exposure conditions (lamp distance, lamp power, and lamp type) were the same in all subsequent experiments. The light dose depended on the irradiation time. […] Compound 3 presented activity against both G+ (S. aureus) and G− (E. coli) bacteria. The light-induced antimicrobial activity against S. aureus and E.coli exceeded log reductions of 5.54 and 4.46, respectively. At these concentrations, not even a single colony was observed on the plates, as complete eradication occurred.
(§2) The second experiment was designed to determine the time and concentration required to achieve the biological effect observed in the first experiment and to extend the study to other strains (Figure 12). Apart from S. aureus and E. coli, the Gram-positive Streptococcus pyogenes ATCC 19615, which is the etiologic agent of tonsillitis, and the Gram-negative Pseudomonas aeruginosa NCTC 6749, which is a major threat to hospitalized and immunocompromised patients due to its high antibiotic resistance, were used. The observed effect was strictly concentration-dependent (Table 6). According to the results, Gram-positive bacteria appear to be the most susceptible to the applied photocytotoxicity study. […] For S. pyogenes, the results were even more pronounced, as the complete eradication under the influence of compound 3 at a concentration of 10 µM occurred after only 5 min of irradiation, while at a concentration of 1 µM, complete eradication occurred after 15 min of irradiation. Interesting results were also obtained for Gram-negative bacteria. […] A high level of eradication of P. aeruginosa in the presence of compound 3 (10 µM) was observed after only 5 min of irradiation (log reduction: 4.29). […] Reductions in microbial survival were still observed with a decrease in compound concentration, but complete eradication was not achieved within the irradiation time.
(§3) The microorganisms used in the study were (i) standard strains of bacteria: Staphylococcus aureus NCTC 4163, Escherichia coli ATCC 25922, Pseudomonas aeruginosa NCTC 6749, and Streptococcus […] ATCC 19615, and (ii) fungi: Candida albicans ATCC 10231. The standard strains were obtained from the National Collection of Type Cultures (NCTC, Salisbury, UK) and the American Type Culture Collection (ATCC, Manassas, VA, USA). Bacterial and yeast strains were stored in Microbank cryogenic vials (Pro-Lab Diagnostics, Richmond Hill, ON, Canada) at −70 °C ± 10 °C. The bacteria were cultured aerobically in brain–heart infusion (BHI) broth (OXOID, Basingstoke, UK) at 36 °C ± 1 °C for 20 h. C. albicans cultures were grown in Sabouraud dextrose broth (SDB, Merck, Steinheim, Germany) at 36 °C for 20 h.
(§4) The organisms were harvested by centrifugation (3000× g for 15 min) and resuspended in 1.5 mL of 10 mM PBS, pH, 7.0 (Sigma-Aldrich, St. Louis, MO, USA). The cells were then diluted 1/100 in PBS to a final concentration of about 10^7 colony-forming units (CFUs)/mL. […]

[2] = test system: Staphylococcus aureus NCTC 4163; assay: as above; assay type: cell-based
Description: as §1, §2, §3, §4

[3] = test system: Candida albicans ATCC 10231; assay: as above; assay type: cell-based; conditions: 10 µM
Description: as §1
The microorganisms used in the study were (i) standard strains of bacteria: Staphylococcus aureus NCTC 4163, Escherichia coli ATCC 25922, Pseudomonas aeruginosa NCTC 6749, and Streptococcus […] ATCC 19615, and (ii) fungi: Candida albicans ATCC 10231. The standard strains were obtained from the National Collection of Type Cultures (NCTC, Salisbury, UK) and the American Type Culture Collection (ATCC, Manassas, VA, USA). […]
The organisms were harvested by centrifugation (3000× g for 15 min) and resuspended in 1.5 mL of 10 mM PBS, pH, 7.0 (Sigma-Aldrich, St. Louis, MO, USA). […] Viable microorganisms were measured by counting the number of colony-forming units (CFUs) after appropriate serial dilution and culture on tryptic soy agar plates (TSA, OXOID, Basingstoke, UK) or Columbia Blood Agar with Sheep Blood (CAS, OXOID, Basingstoke, UK) for bacteria and Sabouraud dextrose agar (SDA, Merck, Steinheim, Germany) for fungi, following incubation at 36 °C ± 1 °C for 24–72 h. The number of surviving organisms and the log10 reduction in microbial cells for each sample were calculated using a formula available in the literature.
Lamp type—LED λmax~470 nm (LIU470A LED Array Light Source; Thorlabs Inc., Bergkirchen, Germany); irradiance—16.67 mW/cm^2 (measured with PM16-130 Power Meter, Thorlabs Inc., Bergkirchen, Germany, and Optel Opole Sp. z o.o., Opole, Poland).

[4] = test system: WM266-4 melanoma cell line; design: method as in Siwak et al. 49; conditions: after 96 h of incubation; ref Siwak et al. 49; cited from earlier work
MRC-5 fibroblasts = test system: MRC-5 fibroblasts; design: method as in Lazewski et al. 32; conditions: ref Lazewski et al. 32, cited from earlier work
S. aureus = conditions: 10 µM; 440 nm; 1.944 J/cm^2; 3.6 mW/cm^2; 8.8 min; cited from earlier work
[5] = L+P+, 10 µM, 470 nm, 30 min, 30.01 J/cm^2
[6] = L+P+, 470 nm, 30 min, 30.01 J/cm^2
[7] = 1 µM, 15 min irradiation 470 nm
[8] = 10 µM, 15 min irradiation 470 nm (15 J/cm^2)

F[B-]1(F)OC(/C=C/c2ccc(OCCN3CCOCC3)cc2)=CC(/C=C/c2ccc(OCCN3CCOCC3)cc2)=[O+]1 [Compound 2]
Log10 reduction ([1]; L−P+ (no light), 10 µM): 0.52 log | Log10 reduction [2, 5]: 2.13 log | Log10 reduction ([2]; L−P+ (no light), 10 µM): 0.05 log | Log10 reduction [3, 6]: 0.01 log | Log10 reduction ([3]; L−P+ (no light)): 0.04 log

C[N+]1(CCOc2ccc(C=CC3=CC(C=Cc4ccc(OCC[N+]5(C)CCOCC5)cc4)=[O+][B-](F)(F)O3)cc2)CCOCC1 [Compound 3]
Log Red. ([1]; 1 µM, 5 min irradiation 470 nm): 0.83 log | biological activity after irradiation ([1]; 1 µM, 470 nm LED): no biological activity | Log Red. [1, 7]: 1.57 log | Log Red. ([1]; 1 µM, 25 min irradiation 470 nm): 1.82 log | Log Red. ([1]; 10 µM, 5 min irradiation 470 nm): 1.15 log | Log Red. [1, 8]: 3.08 log | Log Red. ([1]; 10 µM, 25 min irradiation 470 nm (25 J/cm^2)): 4.53 log | Log10 reduction [1, 5]: >4.46 log | Log10 reduction ([1]; L−P+ (no light), 10 µM): 0.58 log | Log Red. ([2]; 1 µM, 5 min irradiation 470 nm): −0.01 log | Log Red. ([2]; 1 µM, 10 min irradiation 470 nm): 0.77 log | Log Red. [2, 7]: 1.01 log | Log Red. ([2]; 1 µM, 20 min irradiation 470 nm): 1.42 log | Log Red. ([2]; 10 µM, 5 min irradiation 470 nm (5 J/cm^2)): 3.37 log | irradiation time to complete eradication ([2]; 10 µM, 470 nm LED): 15 min | Log Red. ([2]; 10 µM, 10 min irradiation 470 nm): 4.09 log | Log Red. [2, 8]: >5.40 log and >5.4 log | Log10 reduction [2, 5]: >5.54 log | Log10 reduction ([2]; L−P+ (no light), 10 µM): −0.01 log | Log10 reduction [3, 6]: −0.04 log | Log10 reduction ([3]; L−P+ (no light)): −0.09 log

Curcumin [reference compound]
IC50 [4]: ~7 µM | IC50 (MRC-5 fibroblasts; after 24 h): 70.4 ± 12.5 µM | IC50 (MRC-5 fibroblasts; after 48 h): 45.3 ± 3.18 µM | Efficiency (log reduction) (S. aureus): 5.3 log
